How the values were obtained:
[1] = biological target: T1, human DP2 receptor (Homo sapiens, UniProt Q9Y5Y4); assay: DP2/CRTH2 radioligand binding assay using [3H]PGD2; conditions: membranes of HEK293 cells expressing recombinant human DP2, 1 nM [3H]PGD2; read-out: hDP2
T1 construct: expressed in transfected cells
T1 sequence (Q9Y5Y4 1-395): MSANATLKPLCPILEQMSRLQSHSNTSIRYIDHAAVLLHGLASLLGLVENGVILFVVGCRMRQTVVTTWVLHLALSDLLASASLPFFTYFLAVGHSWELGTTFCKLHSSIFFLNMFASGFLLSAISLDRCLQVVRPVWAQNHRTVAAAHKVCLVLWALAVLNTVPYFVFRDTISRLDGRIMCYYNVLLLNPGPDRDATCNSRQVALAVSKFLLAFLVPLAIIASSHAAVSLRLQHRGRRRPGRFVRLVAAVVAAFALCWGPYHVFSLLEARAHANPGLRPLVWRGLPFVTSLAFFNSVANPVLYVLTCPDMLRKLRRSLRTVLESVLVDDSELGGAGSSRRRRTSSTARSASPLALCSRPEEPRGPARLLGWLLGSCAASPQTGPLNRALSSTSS
Description: The ability of a compound to bind to the human DP2 receptor is assessed via a radioligand binding assay using [^3H]PGD2. HEK293 cells stably expressing recombinant human DP2 are resuspended in 10 mM Hepes, 7.4 containing 1 mM DTT, lysed and centrifuged at 75,000×g to pellet the membranes. The membranes are resuspended in 10 mM Hepes, 7.4 containing 1 mM DTT and 10% glycerol to approximately 5 mg protein/ml. Membranes (2-10 μg protein/well) are incubated in 96-well plates with 1 nM [^3H]PGD2 and test compound in Assay Buffer (50 mM Hepes, 10 mM MnCl2, 1 mM EDTA, plus or minus 0.2% human serum albumin, pH 7.4) for 60 minutes at room temperature. The reactions are terminated by rapid filtration through Whatman GF/C glass fibre filter plates. The filter plates were pre-soaked in 0.33% polyethylenimine for 30 minutes at room temperature then washed in Wash Buffer (50 mM Hepes, 0.5 M NaCl pH 7.4) prior to harvesting. After harvesting, the filter plates are washed 3 times with 1 ml cold Wash Buffer then dried. Scintillant is then added to the plates and the radioactivity retained on the filters is determined on a Packard TopCount (Perkin Elmer). Specific binding is determined as total radioactive binding minus non-specific binding in the presence of 10 μM PGD2. IC50s were determined using GraphPad prism analysis of drug titration curves.

[2] = Plasma concentrations of the compound in mice of the allergic rhinitis model; format: in vivo; conditions: female, BALB/c, mouse, 10 mg/kg as the sodium salt, oral
Description: The compounds ability to inhibit allergen-induced sneezing and nasal rubbing is assessed using a mouse model of allergic rhinitis. Methods were adapted from those detailed in Nakaya, M., et al. 2006, Laboratory Investigation, 86:917-926. Female BALB/c mice (20-25 g) are immunized by an intraperitoneal injection (i.p.) of 10 μg ovalbumin (OVA) complexed with alum in a volume 0.2 mL on days 0 and 7. Fourteen days later (day 21) mice are challenged intranasally with 20 μl of a 10 mg/mL solution of OVA. The challenge period occurs daily from days 21 to day 23. Mice (5-7/group) are randomly assigned to receive either compound or vehicle and are treated by oral gavage 1 hour prior to OVA challenge. The number of sneezes and nasal rubs are counted by an independent blinded observe during a period of 8 minutes immediately following OVA challenge on days 21, 23 and […]. A significant increase in allergen-induced sneezing and nasal rubbing occurs over the 3-day challenge period. Inhibition of this effect by select compounds is determined statistically using Graphpad prism.

Row | Compound | IC50 [1] [nM] | Cmax [2] [nM] | concentration at 8 h ([2]; at 8 hours, read-out: Plasma Cmin at 8 hours) [nM]
1 | O=C(O)CCn1c2c(c3ccccc31)C[C@H](NS(=O)(=O)c1ccc(F)cc1)CC2 [Ramatroban] | > 100 | – | –
2 | CN(C1CCc2c(c3ncccc3n2CC(=O)O)C1)S(=O)(=O)c1ccc(F)cc1 (racemic) [Compound 2, {8-[(4-fluoro-benzenesulfonyl)-methyl-amino]-6,7,8,9-tetrahydro-pyrido[3,2-b]indol-5-yl}-acetic acid] | – | 770 | 120

— patent publication US8034826B2, “Cycloalkane[B]azaindole antagonists of prostaglandin D2 receptors” (Panmira Pharmaceuticals, LLC, priority 2008, dated 2011)
